Bridges are numbered along the chain shown (N, C = ends). Where no end group is shown, it is not given here.
Tests used:
[1] = test system: angiotensin I induced pressor response; experiment: inhibition of the angiotensin I induced pressor response in normotensive rats; assay type: in vivo, rat; settings: 10 mg/kg p.o., for 4 hours
Procedure: The in vivo test for i.v. administered compounds is performed with male, normotensive rats, which are anesthetized with sodium metofan. A femoral artery and femoral vein are cannulated respectively for direct blood pressure measurement on i.v. administration of angiotensin I and i.v. or p.o. administration of a compound of this invention. After the basal blood pressure is stabilized, pressor responses to 3 challenges of 300 ng/kg angiotensin I i.v., at 15 minute intervals, are obtained. Such pressure responses are usually again obtained at 15, 30, 60 and 90 minutes, and then every hour up to 6 hours after i.v. or p.o. administration of the compound to be tested, and compared with the initial responses. Any observed decrease of said pressor response is an indication of ACE inhibition.

[2] = test system: spontaneously hypertensive rat (SHR); experiment: antihypertensive activity in conscious spontaneously hypertensive rat (SHR); assay type: in vivo; settings: 11.6 mg/kg p.o.
Text: The antihypertensive activity can be determined, e.g., in the spontaneously hypertensive rat (SHR) and the desoxy-corticosterone acetate (DOCA)-salt hypertensive rat, e.g., according to Trapani et al., J. Cardiovasc. Pharmacol., Vol. 14, pp. 419–424 (1989).

[3] = target: ACE (Homo sapiens, UniProt P12821); experiment: in vitro inhibition of ACE (hippuryl-histidyl-leucine hydrolysis); assay type: biochemical; settings: ACE in vitro assay
Procedure: (§1) In vitro testing is most appropriate for the free carboxylic acids of the invention. The test compound is dissolved in dimethyl sulfoxide, ethanol, or 0.25M sodium bicarbonate solution, and the solution is diluted with buffer to the desired concentration.
The buffer for the ACE assay is 300 mM NaCl, 100 mM KH2PO4 (pH 8.3). The reaction is initiated by the addition of 100 μL of hippuryl-histidyl-leucine (2 mg/mL) to tubes containing enzyme and drug in a volume of 150 μL and tubes are incubated for 30 minutes at 37° C. The reaction is terminated by the addition of 0.75 mL 0.6N NaOH. 100 μL of freshly prepared o-phthalaldehyde solution (2 mg/mL in methanol) is added to the tubes, the contents are mixed and allowed to stand at room temperature. After 10 minutes, 100 μL of 6N HCl is added. The tubes are centrifuged and the supernatant optical density is read at 360 nm. The results are plotted against drug concentration to determine the IC50, i.e., the drug concentration which gives half the activity of the control sample containing no drug.

[4] = target: T1, NEP (EC 3.4.24.11) (Rattus norvegicus, UniProt P07861); experiment: in vitro inhibition of NEP (hydrolysis of glutaryl-Ala-Ala-Phe-2-naphthylamide, GAAP assay); assay type: biochemical; settings: rat kidney cortex membranes
T1 construct: rat kidney cortex membranes prepared by method of Maeda et al. (1983); from tissue; host or cells: rat kidney cortex membranes
T1 sequence (P07861 1-750): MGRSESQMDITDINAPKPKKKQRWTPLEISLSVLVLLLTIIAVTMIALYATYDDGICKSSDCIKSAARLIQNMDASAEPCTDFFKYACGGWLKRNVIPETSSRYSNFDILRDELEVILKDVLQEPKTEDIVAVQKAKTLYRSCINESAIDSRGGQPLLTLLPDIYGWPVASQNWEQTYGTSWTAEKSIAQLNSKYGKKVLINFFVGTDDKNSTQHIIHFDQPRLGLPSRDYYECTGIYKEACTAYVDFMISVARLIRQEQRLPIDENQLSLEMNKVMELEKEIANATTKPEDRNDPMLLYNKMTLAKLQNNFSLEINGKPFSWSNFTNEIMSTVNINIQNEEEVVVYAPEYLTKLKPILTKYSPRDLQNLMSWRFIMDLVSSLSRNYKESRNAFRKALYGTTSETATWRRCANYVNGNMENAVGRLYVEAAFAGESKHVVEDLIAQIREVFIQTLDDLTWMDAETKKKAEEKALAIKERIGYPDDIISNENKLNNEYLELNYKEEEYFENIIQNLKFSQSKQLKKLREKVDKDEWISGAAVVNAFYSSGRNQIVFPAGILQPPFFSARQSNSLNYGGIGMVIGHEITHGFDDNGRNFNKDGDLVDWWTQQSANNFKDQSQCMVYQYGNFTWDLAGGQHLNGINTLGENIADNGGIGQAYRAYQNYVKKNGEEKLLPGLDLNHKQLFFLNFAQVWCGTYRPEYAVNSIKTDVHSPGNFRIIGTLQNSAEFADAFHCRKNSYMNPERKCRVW
Procedure: as §1
The in vitro inhibition of NEP (EC 3.4.24.11) can be determined as follows:
NEP 3.4.24.11 activity is determined by the hydrolysis of the substrate glutaryl-Ala-Ala-Phe-2-naphthylamide […] using a modified procedure of Orlowski and Wilk (1981). The incubation mixture (total volume 125 μL) contains 4.2 μL of protein (rat kidney cortex membranes prepared by method of Maeda et al. (1983), 50 mM tris buffer, pH 7.4 at 25°0 C., 500 μM substrate (final concentration), and leucine aminopeptidase M (2.5 μg). The mixture is incubated for 10 minutes at 25° C., and 100 μL of fast garnet (250 μg fast garnet/mL of 10% Tween 20 in 1M sodium acetate pH 4.2) is added. Enzyme activity is measured spectrophotometrically at 540 nm. One unit of NEP 24.11 activity is defined as 1 nmol of 2-naphthylamine released per minute at 25° C. at pH 7.4. IC50 values are determined, i.e., the concentration of test compound required for 50% inhibition of the release of 2-naphthylamine.

[5] = target: rabbit antibodies that recognize specifically the carboxyl terminal tryptophan of ET-1; experiment: RIA: displacement of [125I]ET-1 binding to anti-ET-1 antibodies; settings: mean±SEM, n=3–5
Procedure: Diluted samples ([…]) obtained from the above enzyme assay are incubated at 4° C. overnight with 25 μL each of [^125I]ET-1 (10,000 cpm/tube) and 1:20,000-fold diluted rabbit antibodies that recognize specifically the carboxyl terminal tryptophan of ET-1. Goat anti-rabbit antibodies coupled to magnetic beads (70 μg) are then added to each tube, and the reaction mixture is further incubated for 30 minutes at room temperature. The beads are pelleted using a magnetic rack. The supernatant is decanted, and the radioactivity in the pellet is counted in a gamma counter. Total and non-specific binding are measured in the absence of non-radioactive ET-1 and anti-ET antibodies, respectively.

ACE, sequence (P12821 30-1306, species assumed): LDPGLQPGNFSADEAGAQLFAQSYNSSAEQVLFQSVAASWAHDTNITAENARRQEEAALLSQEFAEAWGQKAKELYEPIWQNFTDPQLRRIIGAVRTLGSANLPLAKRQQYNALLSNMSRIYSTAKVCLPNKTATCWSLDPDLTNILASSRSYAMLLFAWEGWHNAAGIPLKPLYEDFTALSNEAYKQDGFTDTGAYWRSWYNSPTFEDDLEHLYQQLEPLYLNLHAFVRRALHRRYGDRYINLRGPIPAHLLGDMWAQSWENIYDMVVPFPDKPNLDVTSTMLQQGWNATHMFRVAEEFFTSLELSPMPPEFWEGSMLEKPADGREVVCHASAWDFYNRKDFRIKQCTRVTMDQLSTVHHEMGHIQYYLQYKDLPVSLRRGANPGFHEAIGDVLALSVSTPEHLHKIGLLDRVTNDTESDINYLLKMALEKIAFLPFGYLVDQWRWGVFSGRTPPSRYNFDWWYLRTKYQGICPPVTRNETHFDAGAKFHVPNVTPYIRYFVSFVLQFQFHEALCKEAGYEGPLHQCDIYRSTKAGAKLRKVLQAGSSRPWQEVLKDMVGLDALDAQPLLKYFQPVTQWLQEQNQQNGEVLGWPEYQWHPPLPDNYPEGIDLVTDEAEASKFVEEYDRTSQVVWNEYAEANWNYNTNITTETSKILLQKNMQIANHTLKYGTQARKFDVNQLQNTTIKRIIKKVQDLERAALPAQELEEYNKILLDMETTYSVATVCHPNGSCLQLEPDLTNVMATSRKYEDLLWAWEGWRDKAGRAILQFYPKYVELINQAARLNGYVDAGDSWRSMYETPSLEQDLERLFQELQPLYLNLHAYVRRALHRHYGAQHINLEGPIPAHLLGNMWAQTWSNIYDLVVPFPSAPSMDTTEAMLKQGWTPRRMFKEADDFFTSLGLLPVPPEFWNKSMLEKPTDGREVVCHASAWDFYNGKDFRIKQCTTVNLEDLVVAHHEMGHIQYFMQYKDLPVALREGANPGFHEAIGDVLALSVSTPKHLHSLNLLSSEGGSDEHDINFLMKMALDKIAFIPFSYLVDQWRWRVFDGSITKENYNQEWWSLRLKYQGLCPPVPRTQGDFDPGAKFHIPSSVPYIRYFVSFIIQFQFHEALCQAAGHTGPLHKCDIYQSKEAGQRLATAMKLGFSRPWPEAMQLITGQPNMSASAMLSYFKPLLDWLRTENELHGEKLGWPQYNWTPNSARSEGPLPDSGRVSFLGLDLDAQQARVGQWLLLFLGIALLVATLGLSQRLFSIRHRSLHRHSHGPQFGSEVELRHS

Compound: CCOC(=O)[C@H](Cc1ccc(OC)cc1)NC(=O)C(C)(C)NC(=O)[C@@H](SC(C)=O)C1CCOCC1 [Example 1f, N-[2-[(S)-2-acetylthio-2-(4-tetrahydropyranyl)-acetylamino]-2-methylpropionyl]-(L)-4-methoxyphenylalanine ethyl ester]
- inhibition of the angiotensin I induced pressor response [1]: 98%
- reduction of mean arterial pressure [2]: about 16 mm Hg

Compound: COc1ccc(C[C@H](NC(=O)C(C)(C)NC(=O)[C@@H](S)C2CCOCC2)C(=O)O)cc1 [Example 2g, N-[2-[(S)-2-mercapto-2-(4-tetrahydropyranyl)-acetylamino]-2-methylpropionyl]-(L)-4-methoxyphenylalanine]
- IC50 [3]: ~5.9 nM
- IC50 [4]: ~4.8 nM

Compound: ET-1: non-radioactive ET-1, the peptide formed from big ET-1 by ECE and measured by RIA
- IC50 for displacement of [125I]ET-1 binding to the antibodies [5]: 21 ± 2 fmol

Compound: big ET-1: ECE substrate from which ET-1 is formed; added in the ECE-1 assay (CSCSSLMDKECVYFCHLDIIWVNTPEHVVPYGLGSPRS; disulfide 1-15, 3-11; ends not checked; UniProt P05305 53-90, looked up)
- IC50 for displacement of [125I]ET-1 binding to the antibodies [5]: 260,000±66,000 fmol
